Test results as given in patent US6570010B2, “Inclusion compounds of vanillyl alcohol derivative in cyclodextrin and compositions containing the same” (Takasago International Corporation, priority 2000, dated 2003).

Test: Solubility in water of 20° C.
Assay type: physicochemical
Conditions: wt. %
Text: In this table, vanillyl-n-butyl ether will be abbreviated as VBE.

Solubility of VBE in terms of concentration: <0.002%
SMILES: CCCCOCc1ccc(O)c(OC)c1 [VBE, vanillyl-n-butyl ether]
